Biological target: T1, Nurr1 LBD homodimer (Homo sapiens, UniProt P43354)
T1 construct: a plasmid construct encoding Nurr1 (aa 364-598) in a pMal vector system; sGFP-Nurr1 LBD protein and sGFP-RXRα LBD[26] were titrated against a fixed concentration of Tb-SA conjugated Nurr1 LBD protein; MBP (cleaved yes); made in house; host or cells: E.coli BL21-R3-pRARE2 (biotinylated Nurr1 LBD)
Experiment: HTRF Nurr1 homodimer formation assay
Assay type: biochemical

T1 sequence (P43354 364-598 limits assumed): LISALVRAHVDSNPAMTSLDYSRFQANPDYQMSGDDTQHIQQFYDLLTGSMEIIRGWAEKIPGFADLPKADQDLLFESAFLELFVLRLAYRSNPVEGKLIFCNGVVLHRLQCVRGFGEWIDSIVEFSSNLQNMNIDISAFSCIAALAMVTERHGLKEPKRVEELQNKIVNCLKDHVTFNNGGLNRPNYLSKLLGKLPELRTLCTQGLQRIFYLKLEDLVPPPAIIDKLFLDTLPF

O=C(O)C1=C(C(=O)Nc2ccc(-c3ccccc3OCc3ccccc3)cc2F)CCC1 [compound 1, 2-{[2’-(Benzyloxy)-3-fluoro-[1,1’-biphenyl]-4-yl]carbamoyl}cyclopent-1-ene-1-carboxylic acid]
effect on Nurr1 homodimerization: markedly disrupted

From PMC12095788 (Communications Chemistry, 2025)
